Measurements: PubChem BioAssay AID1963865 (Molecular Pharmacology Branch, DTP, NCI, 2024)

Tested on: KRAS PDC multicell spheroid viability
Assay: Anticancer human tumor 825966-067-R-J1-PDC patient-derived colon carcinoma cell line growth inhibition [KRAS2]
Details: for IC50: curve of first compound; for viability, T/C: stronger effect = lower value
Method in brief: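 KRAS-mutant tumor cells were grown as spheroids with HUVEC endothelial cells and human MSCs as stroma. Targeted agents were tested alone and with KRAS pathway inhibitors. Doses started at or near clinical Cmax, or 10 microM, descending half-log.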

[1] = second compound 0.1 µM, first compound 0.0316 µM
[2] = second compound 0.1 µM, first compound 0.1 µM
[3] = second compound 0.1 µM, first compound 0.316 µM
[4] = second compound 0.1 µM, first compound 1 µM
[5] = second compound 0.1 µM, first compound 3.16 µM
[6] = second compound 0.1 µM, first compound 10 µM
[7] = second compound 0.316 µM, first compound 0.0316 µM
[8] = second compound 0.316 µM, first compound 0.1 µM
[9] = second compound 0.316 µM, first compound 0.316 µM
[10] = second compound 0.316 µM, first compound 1 µM
[11] = second compound 0.316 µM, first compound 3.16 µM
[12] = second compound 0.316 µM, first compound 10 µM
[13] = second compound 1 µM, first compound 0.0316 µM
[14] = second compound 1 µM, first compound 0.1 µM
[15] = second compound 1 µM, first compound 0.316 µM
[16] = second compound 1 µM, first compound 1 µM
[17] = second compound 1 µM, first compound 3.16 µM
[18] = second compound 1 µM, first compound 10 µM
[19] = second compound 3.16 µM, first compound 0.0316 µM
[20] = second compound 3.16 µM, first compound 0.1 µM
[21] = second compound 3.16 µM, first compound 0.316 µM
[22] = second compound 3.16 µM, first compound 1 µM
[23] = second compound 3.16 µM, first compound 3.16 µM
[24] = second compound 3.16 µM, first compound 10 µM
[25] = second compound 10 µM, first compound 0.0316 µM
[26] = second compound 10 µM, first compound 0.1 µM
[27] = second compound 10 µM, first compound 0.316 µM
[28] = second compound 10 µM, first compound 1 µM
[29] = second compound 10 µM, first compound 3.16 µM
[30] = second compound 10 µM, first compound 10 µM
[31] = second compound 0.1 µM, first compound 0.000316 µM
[32] = second compound 0.1 µM, first compound 0.001 µM
[33] = second compound 0.1 µM, first compound 0.00316 µM
[34] = second compound 0.1 µM, first compound 0.01 µM
[35] = second compound 0.316 µM, first compound 0.000316 µM
[36] = second compound 0.316 µM, first compound 0.001 µM
[37] = second compound 0.316 µM, first compound 0.00316 µM
[38] = second compound 0.316 µM, first compound 0.01 µM
[39] = second compound 1 µM, first compound 0.000316 µM
[40] = second compound 1 µM, first compound 0.001 µM
[41] = second compound 1 µM, first compound 0.00316 µM
[42] = second compound 1 µM, first compound 0.01 µM
[43] = second compound 3.16 µM, first compound 0.000316 µM
[44] = second compound 3.16 µM, first compound 0.001 µM
[45] = second compound 3.16 µM, first compound 0.00316 µM
[46] = second compound 3.16 µM, first compound 0.01 µM
[47] = second compound 10 µM, first compound 0.000316 µM
[48] = second compound 10 µM, first compound 0.001 µM
[49] = second compound 10 µM, first compound 0.00316 µM
[50] = second compound 10 µM, first compound 0.01 µM
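Also: spheroids exposed to compounds for 7 days.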
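For viability, T/C in this document: 100% = DMSO vehicle control viability.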

Row | Structure (SMILES) | IC50 (second compound 0.1 µM) [nM] | IC50 (second compound 0.316 µM) [nM] | IC50 (second compound 1 µM) [nM] | IC50 (second compound 3.16 µM) [nM] | IC50 (second compound 10 µM) [nM] | viability, T/C [1] [%] | viability, T/C [2] [%] | viability, T/C [3] [%] | viability, T/C [4] [%] | viability, T/C [5] [%] | viability, T/C [6] [%] | viability, T/C [7] [%] | viability, T/C [8] [%] | viability, T/C [9] [%] | viability, T/C [13] [%] | viability, T/C [14] [%] | viability, T/C [19] [%] | viability, T/C [20] [%] | viability, T/C [25] [%] | viability, T/C [26] [%] | other results
1 | CC(C)NCC(C(=O)N1CCN(c2ncnc3c2C(C)CC3O)CC1)c1ccc(Cl)cc1 (stereo not given) + CNCc1ccccc1-c1csc(C(C)Nc2nc(C)nc3cc(OC)c(OC)cc23)c1 | 1880 | 1780 | 787 | 32.2 | < 31.6 | 84.8 | 84.4 | 89.6 | 85.3 | 20.8 | 7.87 | 79 | 110 | 119 | 81.6 | 84.8 | 50.6 | 21.1 | 1.91 | 1.5 | viability, T/C [10]: 69.9%; viability, T/C [11]: 29.2%; viability, T/C [12]: 6.85%; viability, T/C [15]: 97.9%; viability, T/C [16]: 40%; viability, T/C [17]: 14.8%; viability, T/C [18]: 3.31%; viability, T/C [21]: 1.24%; viability, T/C [22]: 0.74%; viability, T/C [23]: 0.68%; viability, T/C [24]: 1.98%; viability, T/C [27]: 0.93%; viability, T/C [28]: 0.3%; viability, T/C [29]: 0.36%; viability, T/C [30]: 0.91%
2 | CC(C)n1nc(-c2ccc3oc(N)nc3c2)c2c(N)ncnc21 + CNCc1ccccc1-c1csc(C(C)Nc2nc(C)nc3cc(OC)c(OC)cc23)c1 | > 100 | > 100 | > 100 | 1.92 | < 0.316 | 128 | 154 | – | – | – | – | 142 | 109 | – | 76.4 | 84.2 | 12.4 | 2.02 | 0.41 | 0.41 | viability, T/C [31]: 126%; viability, T/C [32]: 113%; viability, T/C [33]: 159%; viability, T/C [34]: 185%; viability, T/C [35]: 117%; viability, T/C [36]: 150%; viability, T/C [37]: 172%; viability, T/C [38]: 136%; viability, T/C [39]: 131%; viability, T/C [40]: 135%; viability, T/C [41]: 156%; viability, T/C [42]: 132%; viability, T/C [43]: 66.2%; viability, T/C [44]: 105%; viability, T/C [45]: 22.9%; viability, T/C [46]: 1.2%; viability, T/C [47]: 0.21%; viability, T/C [48]: 0.64%; viability, T/C [49]: 1.75%; viability, T/C [50]: 0.23%
3 | CC1(C)CCC(CN2CCN(c3ccc(C(=O)NS(=O)(=O)c4ccc(NCC5CCOCC5)c([N+](=O)[O-])c4)c(Oc4cnc5[nH]ccc5c4)c3)CC2)=C(c2ccc(Cl)cc2)C1 + CNCc1ccccc1-c1csc(C(C)Nc2nc(C)nc3cc(OC)c(OC)cc23)c1 | 2180 | 2190 | 2050 | 1550 | < 31.6 | 91.4 | 106 | 97.5 | 92.9 | 29.4 | 4.56 | 94.7 | 101 | 95.2 | 88.5 | 96.7 | 45.1 | 98.6 | 0.25 | 0.32 | viability, T/C [10]: 104%; viability, T/C [11]: 27.4%; viability, T/C [12]: 2.36%; viability, T/C [15]: 126%; viability, T/C [16]: 132%; viability, T/C [17]: 13.6%; viability, T/C [18]: 2.22%; viability, T/C [21]: 64.8%; viability, T/C [22]: 102%; viability, T/C [23]: 5.49%; viability, T/C [24]: 0.23%; viability, T/C [27]: 1.83%; viability, T/C [28]: 0.35%; viability, T/C [29]: 0.66%; viability, T/C [30]: 0.23%
4 | COc1cc(Nc2ncc3c(n2)-c2ccc(Cl)cc2C(c2c(F)cccc2OC)=NC3)ccc1C(=O)O + CNCc1ccccc1-c1csc(C(C)Nc2nc(C)nc3cc(OC)c(OC)cc23)c1 | > 10000 | > 10000 | > 10000 | < 31.6 | < 31.6 | 95.3 | 178 | 165 | 150 | 167 | 155 | 132 | 145 | 124 | 108 | 123 | 0.27 | 2.41 | 0.16 | 0.15 | viability, T/C [10]: 140%; viability, T/C [11]: 147%; viability, T/C [12]: 134%; viability, T/C [15]: 159%; viability, T/C [16]: 156%; viability, T/C [17]: 142%; viability, T/C [18]: 120%; viability, T/C [21]: 15.8%; viability, T/C [22]: 0.43%; viability, T/C [23]: 0.37%; viability, T/C [24]: 4.13%; viability, T/C [27]: 0.17%; viability, T/C [28]: 0.16%; viability, T/C [29]: 0.17%; viability, T/C [30]: 0.22%
5 | COc1cc2nccc(Oc3ccc(NC(=O)C4(C(=O)Nc5ccc(F)cc5)CC4)cc3)c2cc1OC + CNCc1ccccc1-c1csc(C(C)Nc2nc(C)nc3cc(OC)c(OC)cc23)c1 | 1740 | 1730 | 1880 | 192 | < 31.6 | 86.2 | 124 | 94 | 91.2 | 4.92 | 6.89 | 74.8 | 98.7 | 94 | 97.9 | 117 | 113 | 59.8 | 0.28 | 0.32 | viability, T/C [10]: 97.8%; viability, T/C [11]: 3.71%; viability, T/C [12]: 4.44%; viability, T/C [15]: 104%; viability, T/C [16]: 122%; viability, T/C [17]: 0.94%; viability, T/C [18]: 0.47%; viability, T/C [21]: 53.4%; viability, T/C [22]: 1.03%; viability, T/C [23]: 0.6%; viability, T/C [24]: 0.24%; viability, T/C [27]: 0.24%; viability, T/C [28]: 0.18%; viability, T/C [29]: 0.17%; viability, T/C [30]: 0.29%
6 | Cn1ncnc1[C@H]1c2n[nH]c(=O)c3cc(F)cc(c23)N[C@@H]1c1ccc(F)cc1 + CNCc1ccccc1-c1csc(C(C)Nc2nc(C)nc3cc(OC)c(OC)cc23)c1 | > 100 | > 100 | > 100 | 22.4 | < 0.316 | 58.2 | 58.3 | – | – | – | – | 57.3 | 62.2 | – | 70 | 86 | 37.6 | 3.27 | 0.22 | 0.19 | viability, T/C [31]: 77%; viability, T/C [32]: 84.2%; viability, T/C [33]: 76.4%; viability, T/C [34]: 64.5%; viability, T/C [35]: 99.9%; viability, T/C [36]: 75.2%; viability, T/C [37]: 62.5%; viability, T/C [38]: 57.9%; viability, T/C [39]: 85.9%; viability, T/C [40]: 97.9%; viability, T/C [41]: 72%; viability, T/C [42]: 73.5%; viability, T/C [43]: 87.3%; viability, T/C [44]: 78.7%; viability, T/C [45]: 59.9%; viability, T/C [46]: 89.3%; viability, T/C [47]: 0.24%; viability, T/C [48]: 0.26%; viability, T/C [49]: 0.49%; viability, T/C [50]: 0.28%
